Where a chain is given by its changes, count along the chain named.
What was measured:
[1] = biological target: T1, KDM4C DTD (human KDM4C double tudor domain, 877–991aa) (Homo sapiens, UniProt Q9H3R0); test: fluorescence polarization (FP) binding, KDM4C-DTD wild-type; conditions: Fig. 1c, 3 nM fluorescein-labelled peptide, pH 7.4, ± s.d. from three experimental replicates, read-out: binding constant (FP), KDM4C-DTD
T1 construct: DNA encoding DTDs (KDM4A 895–1011aa, KDM4B 917–1031aa and KDM4C 877–991aa); (His)6-HaloTag (pFN29) or (His)6 (pET28b); made in house; host or cells: Escherichia coli BL21 (DE3)
T1 sequence (Q9H3R0 877-991): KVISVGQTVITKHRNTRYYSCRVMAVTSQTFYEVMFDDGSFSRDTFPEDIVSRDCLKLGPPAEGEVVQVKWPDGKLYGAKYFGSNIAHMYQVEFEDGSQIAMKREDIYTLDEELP
From the text: (§1) KDM4 protein sequences used in this study correspond to Uniprot ID: O75164 (human KDM4A, isoform 1), O94953 (human KDM4B, isoform1) and Q9H3R0 (human KDM4C, isoform1). Plasmid encoding KDM4A DTD was kindly provided by R-M Xu (Chinese Academy of Sciences). Complementary DNA encoding human KDM4B-DTD was synthesized (Integrated DNA Technologies). Plasmid containing cDNA of full-length KDM4C (clone ID: HsCD00341594) was obtained from Harvard Plasmid Repository. DNA encoding DTDs (KDM4A 895–1011aa, KDM4B 917–1031aa and KDM4C 877–991aa) were cloned into pFN29 (Promega) with N-terminal (His)6-HaloTag or pET28b with N-terminal (His)6 Tag using In-Fusion HD cloning kit (Clontech). […]
(§2) Peptide sequences are given in Supplementary Table 1. […] Polarization at each concentration was measured as triplicates in 384-well polystyrene black microplates (Thermo Fisher Scientific 262260) by Biotek Synergy H4 multimode plate reader (light source: xenon flash, offset from top: 7 mm, sensitivity: 60%, excitation: 485/20 nm, emission: 528/20 nm, both parallel and perpendicular, normal read speed). Fraction bound (Fb) at each concentration was calculated based on the corresponding polarization values (P): Fbc=(Pc−Pmin)/(Pmax−Pmin), where Pmin is the polarization value of no-protein control and Pmax is the polarization value of the saturation value for that peptide. […]

[2] = biological target: T2, KDM4A-DTD triple mutant N931D/D939R/D945R (DRR) (Homo sapiens, UniProt O75164, D939R/D945R/N931D); test: FP binding, KDM4A-DTD DRR mutant
T2 construct: DNA encoding DTDs (KDM4A 895–1011aa, KDM4B 917–1031aa and KDM4C 877–991aa); (His)6-HaloTag (pFN29) or (His)6 (pET28b); made in house; host or cells: Escherichia coli BL21 (DE3)
T2 sequence (O75164 895-1011 N931D/D939R/D945R): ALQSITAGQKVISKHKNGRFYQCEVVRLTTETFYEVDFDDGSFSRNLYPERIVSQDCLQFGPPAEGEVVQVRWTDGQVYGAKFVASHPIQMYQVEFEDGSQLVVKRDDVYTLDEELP
From the text: as §1, §2

[3] = biological target: T3, KDM4B DTD (human KDM4B double tudor domain, 917–1031aa) (Homo sapiens, UniProt O94953); test: fluorescence polarization (FP) binding, KDM4B-DTD wild-type; conditions: Fig. 1c, 3 nM fluorescein-labelled peptide, pH 7.4, ± s.d. from three experimental replicates, read-out: binding constant (FP), KDM4B-DTD
T3 construct: DNA encoding DTDs (KDM4A 895–1011aa, KDM4B 917–1031aa and KDM4C 877–991aa); (His)6-HaloTag (pFN29) or (His)6 (pET28b); made in house; host or cells: Escherichia coli BL21 (DE3)
T3 sequence (O94953 917-1031): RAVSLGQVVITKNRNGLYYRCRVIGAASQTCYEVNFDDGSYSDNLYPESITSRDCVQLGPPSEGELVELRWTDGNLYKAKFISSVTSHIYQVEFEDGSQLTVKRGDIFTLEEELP
From the text: (§3) KDM4 protein sequences used in this study correspond to Uniprot ID: O75164 (human KDM4A, isoform 1), O94953 (human KDM4B, isoform1) and Q9H3R0 (human KDM4C, isoform1). Plasmid encoding KDM4A DTD was kindly provided by R-M Xu (Chinese Academy of Sciences). Complementary DNA encoding human KDM4B-DTD was synthesized (Integrated DNA Technologies). Plasmid containing cDNA of full-length KDM4C (clone ID: HsCD00341594) was obtained from Harvard Plasmid Repository. DNA encoding DTDs (KDM4A 895–1011aa, KDM4B 917–1031aa and KDM4C 877–991aa) were cloned into pFN29 (Promega) with N-terminal (His)6-HaloTag or pET28b with N-terminal (His)6 Tag using In-Fusion HD cloning kit (Clontech). Plasmids encoding Xenopus laevis core histones were a generous gift of K. Luger (University of Colorado-Boulder). Site-directed mutagenesis was performed with Q5 Site-Directed Mutagenesis Kit (New England Biolabs).
(§4) Peptide sequences are given in Supplementary Table 1. […] A no-protein control with only peptide probe was included. Polarization at each concentration was measured as triplicates in 384-well polystyrene black microplates (Thermo Fisher Scientific 262260) by Biotek Synergy H4 multimode plate reader (light source: xenon flash, offset from top: 7 mm, sensitivity: 60%, excitation: 485/20 nm, emission: 528/20 nm, both parallel and perpendicular, normal read speed). Fraction bound (Fb) at each concentration was calculated based on the corresponding polarization values (P): Fbc=(Pc−Pmin)/(Pmax−Pmin), where Pmin is the polarization value of no-protein control and Pmax is the polarization value of the saturation value for that peptide. Dissociation constants (Kd) were derived by KaleidaGraph, Synergy Software (version 4.1.3) using the following equation: Fb=[protein]/([protein]+Kd).

[4] = biological target: T4, KDM4A-DTD N931R (Homo sapiens, UniProt O75164, N931R); test: FP binding, KDM4A-DTD N931R; conditions: pH 7.4, Fig. 2j (± s.d., three replicates) and text, read-out: binding affinity, KDM4A-DTD N931R
T4 construct: DNA encoding DTDs (KDM4A 895–1011aa, KDM4B 917–1031aa and KDM4C 877–991aa); (His)6-HaloTag (pFN29) or (His)6 (pET28b); made in house; host or cells: Escherichia coli BL21 (DE3)
T4 sequence (O75164 895-1011 N931R limits assumed): T2 sequence (O75164 895-1011 N931D/D939R/D945R) with D37R, R45D, R51D
From the text: as §1, §2

[5] = biological target: T5, KDM4A-DTD Y973A (Homo sapiens, UniProt O75164, Y973A); test: FP binding, KDM4A-DTD Y973A; conditions: pH 7.4, aromatic cage mutant, Fig. 2e (± s.d., three replicates) and text
T5 construct: DNA encoding DTDs (KDM4A 895–1011aa, KDM4B 917–1031aa and KDM4C 877–991aa); (His)6-HaloTag (pFN29) or (His)6 (pET28b); made in house; host or cells: Escherichia coli BL21 (DE3)
T5 sequence (O75164 895-1011 Y973A limits assumed): T2 sequence (O75164 895-1011 N931D/D939R/D945R) with D37N, R45D, R51D, Y79A
From the text: as §1, §2

[6] = biological target: T6, KDM4B-DTD Y993A (Homo sapiens, UniProt O94953, Y993A); test: FP binding, KDM4B-DTD Y993A; conditions: aromatic cage mutant, Supplementary Fig. 4d, value printed in peer review file
T6 construct: DNA encoding DTDs (KDM4A 895–1011aa, KDM4B 917–1031aa and KDM4C 877–991aa); (His)6-HaloTag (pFN29) or (His)6 (pET28b); made in house; host or cells: Escherichia coli BL21 (DE3)
T6 sequence (O94953 917-1031 Y993A): T3 sequence (O94953 917-1031) with Y77A
From the text: as §1, §2

[7] = biological target: T7, KDM4A-DTD N940A (Homo sapiens, UniProt O75164, N940A); test: FP binding, KDM4A-DTD N940A; conditions: pH 7.4, Fig. 2g, 4g (± s.d., three replicates) and text
T7 construct: DNA encoding DTDs (KDM4A 895–1011aa, KDM4B 917–1031aa and KDM4C 877–991aa); (His)6-HaloTag (pFN29) or (His)6 (pET28b); made in house; host or cells: Escherichia coli BL21 (DE3)
T7 sequence (O75164 895-1011 N940A): T2 sequence (O75164 895-1011 N931D/D939R/D945R) with D37N, R45D, N46A, R51D
From the text: as §1, §2

[8] = biological target: T8, KDM4A-DTD N931D (Homo sapiens, UniProt O75164, N931D); test: FP binding, KDM4A-DTD N931D; conditions: pH 7.4, Fig. 2j (± s.d., three replicates), Supplementary Fig. 2f and text
T8 construct: DNA encoding DTDs (KDM4A 895–1011aa, KDM4B 917–1031aa and KDM4C 877–991aa); (His)6-HaloTag (pFN29) or (His)6 (pET28b); made in house; host or cells: Escherichia coli BL21 (DE3)
T8 sequence (O75164 895-1011 N931D): T2 sequence (O75164 895-1011 N931D/D939R/D945R) with R45D, R51D
From the text: as §1, §2

[9] = biological target: T9, KDM4A DTD (human KDM4A double tudor domain, 895–1011aa) (Homo sapiens, UniProt O75164); test: fluorescence polarization (FP) binding, KDM4A-DTD wild-type; conditions: pH 7.4, read-out: Kd, KDM4A-DTD wild-type
T9 construct: DNA encoding DTDs (KDM4A 895–1011aa, KDM4B 917–1031aa and KDM4C 877–991aa); (His)6-HaloTag (pFN29) or (His)6 (pET28b); made in house; host or cells: Escherichia coli BL21 (DE3)
T9 sequence (O75164 895-1011): T2 sequence (O75164 895-1011 N931D/D939R/D945R) with D37N, R45D, R51D
From the text: as §3, §4

CC(C)C[C@H](NC(=O)[C@H](CCC(N)=O)NC(=O)[C@H](CCCCN)NC(=O)[C@H](CCCNC(=N)N)NC(=O)c1ccc2c(c1)C(=O)OC21c2ccc(O)cc2Oc2cc(O)ccc21)C(=O)N[C@@H](C)C(=O)N[C@H](C(=O)N[C@@H](CCCC[N+](C)(C)C)C(=O)N[C@@H](C)C(=O)N[C@@H](C)C(=O)N[C@@H](CCCNC(=N)N)C(=O)N[C@@H](CCCCN)C(=O)N[C@@H](CO)C(=O)N[C@@H](C)C(=O)N1CCC[C@H]1C(=O)N[C@@H](C)C(=O)N[C@H](C(=O)O)[C@@H](C)O)[C@@H](C)O [H3K23me3]
Kd [1]: 73.6 ± 3.9 µM | Kd of DRR mutant [2]: low micromolar Kd value | Kd [3]: 10.3 ± 1.2 µM | Kd [4]: 73.9 µM | Kd [5]: 285 µM | Kd [6]: 327 µM | Kd [7]: 57.4 µM | Kd [8]: 0.85 µM | Kd [9]: 2.2 µM

From publication PMC5114558, “Reader domain specificity and lysine demethylase-4 family function” (Nature Communications, 2016)
